From patent US20250270170A1, “2,3-DIMETHOXY-5-METHYL-1,4-BENZOQUINONE ALKYL ALCOHOL DERIVATIVE AND USE THEREOF” (BEIJING ANJIANXI BIO-MEDICAL TECHNOLOGY CO., LTD., priority 2021, published 2025)

What was measured:
[1] = Example 8: serum UREA at the end of the assay; assay type: in vivo, nude mice; settings: DDP 5 mg/kg i.p. QW×4
Source text: The assay animals, calculation of tumor volume (TV), end of assay, data recording, calculation formula of tumor growth inhibition rate TGI (%), and statistical analysis method were the same as those in Example 3; the preparation of the administration formulation of the compound of formula (I) was the same as that in Example 5. [table]

[2] = Example 9: body weight of A549 tumor-bearing nude mice; assay type: in vivo
Description: On D1 of the assay, the A549 cells in the logarithmic growth phase were collected, counted and resuspended in PBS, and the cell concentration was adjusted to 8×10^7 cells/mL. The cells were pipetted with a pipette to disperse them evenly, and the cells were put into a 50-mL centrifuge tube, which was placed in an ice box. A 1-mL syringe was used to draw the cell suspension, which was injected subcutaneously into the axilla of the front right limb of a nude mouse. Each animal was inoculated with 100 μL (8×10^6 cells/mouse) to establish an A549 transplanted tumor model in nude mice. After the inoculation, the animal status and tumor growth were regularly observed. On D18, the tumor diameter was measured using an electronic vernier caliper. The data were input into an Excel spreadsheet to calculate the tumor volume. Tumor-bearing mice in good health and with similar tumor volumes (101 to 156 mm^3) were selected and divided into groups using randomized block method. After the start of the assay, the tumor diameter was measured regularly, the tumor volume was calculated, and the animal body weight was also weighed and recorded. [table]

A549 cells = test: Cell EDU proliferation assay, A549; assay type: cell-based, human; settings: 150 μM
Description: The compound of formula (I) at a concentration of 150 μM was co-cultured with the cells for 42 h, and then the FBS concentration in the FBS stimulation well was increased to 20%. The cells were cultured for another 6 h, and then detected using a Cell-Light EDUApollo567 kit.
(1) Cells in the logarithmic growth phase were taken, and inoculated into a 24-well culture plate at 1×10^4 cells per well. The culture plate was cultured in a 37° C. incubator under the condition of 5% CO2, and drug was added according to the assay design when the cells adhered to the wall.
(2) After the drug treatment, the Cell-Light EDU Apollo567 kit was taken out. The reagent A in the kit was diluted with 1640 complete culture medium at a ratio of 1000:1 to prepare a 50 μM EDU culture medium, 300 μl of which was configured to each well of the 24-well plate. The 24-well plate was taken out from the incubator, and the original culture medium was aspirated with a vacuum aspirator. […]
(12) 150 μl of PBS was added to each well to wash once, and the PBS was discarded. Then, 200 μl of PBS was added, and the plate was placed on an inverted fluorescence microscope to take pictures. 6 fields of view were taken for each well under a 200× field of view, and the proportion of EDU-positive cells among 100 cells was calculated. […]

[3] = D21, DDP 5/7/7/7 mg/kg i.p. QW×4
[4] = D25, DDP 5/7/7/7 mg/kg i.p. QW×4
[5] = D28, DDP 5/7/7/7 mg/kg i.p. QW×4
[6] = D32, DDP 5/7/7/7 mg/kg i.p. QW×4
[7] = D35, DDP 5/7/7/7 mg/kg i.p. QW×4
[8] = D39, DDP 5/7/7/7 mg/kg i.p. QW×4
[9] = D42, DDP 5/7/7/7 mg/kg i.p. QW×4
[10] = D46, DDP 5/7/7/7 mg/kg i.p. QW×4

For `N.N.[Cl][Pt][Cl]` [DDP, cisplatin], which “Serum UREA Mean ± SE” value [1] is on record?
The value was 13.43 ± 1.04 mmol/L.

And the “Mean animal body weight” value ([2]; D18, DDP 4 mg/kg i.p. QW×4)?
Its value is 18.4 ± 0.4 g.

What about the “Mean animal body weight” value ([2]; D18, DDP 5/7/7/7 mg/kg i.p. QW×4) of the same compound?
The value was 18.5 ± 0.3 g.

What about the “Mean animal body weight” value ([2]; D21, DDP 4 mg/kg i.p. QW×4) of the same compound?
Its value is 18.3 ± 0.5 g.

What about the “body weight loss rate” value ([2]; D21, DDP 4 mg/kg i.p. QW×4) of the same compound?
Its value is “(0.81%)”.

What about the “Mean animal body weight” value [2, 3] of the same compound?
Its value is 18.4 ± 0.3 g.

What about the “body weight loss rate” value [2, 3] of the same compound?
Its value is “(0.61%)”.

And the “Mean animal body weight” value ([2]; D25, DDP 4 mg/kg i.p. QW×4)?
Its value is 18.1 ± 0.3 g.

And the “body weight loss rate” value ([2]; D25, DDP 4 mg/kg i.p. QW×4)?
The value was “(1.7%)”.

What about the “Mean animal body weight” value [2, 4] of the same compound?
The value was 18.5 ± 0.3 g.

What about the “body weight loss rate” value [2, 4] of the same compound?
Its value is “(0.00%)”.

What about the “Mean animal body weight” value ([2]; D28, DDP 4 mg/kg i.p. QW×4) of the same compound?
Its value is 18.5 ± 0.3 g.

And the “body weight loss rate” value ([2]; D28, DDP 4 mg/kg i.p. QW×4)?
The value was “(−0.14%)”.

And the “Mean animal body weight” value [2, 5]?
The value was 18.9 ± 0.3 g.

What about the “body weight loss rate” value [2, 5] of the same compound?
Its value is “(−2.4%)”.

And the “Mean animal body weight” value ([2]; D32, DDP 4 mg/kg i.p. QW×4)?
The value was 18.7 ± 0.3 g.

And the “body weight loss rate” value ([2]; D32, DDP 4 mg/kg i.p. QW×4)?
Its value is “(−1.4%)”.

And the “Mean animal body weight” value [2, 6]?
Its value is 18.3 ± 0.4 g.

What about the “body weight loss rate” value [2, 6] of the same compound?
The value was “(1.3%)”.

What about the “Mean animal body weight” value ([2]; D35, DDP 4 mg/kg i.p. QW×4) of the same compound?
The value was 19.3 ± 0.3 g.

What about the “body weight loss rate” value ([2]; D35, DDP 4 mg/kg i.p. QW×4) of the same compound?
Its value is “(−4.9%)”.

And the “Mean animal body weight” value [2, 7]?
Its value is 19.2 ± 0.4 g.

And the “body weight loss rate” value [2, 7]?
The value was “(−4.0%)”.

And the “Mean animal body weight” value ([2]; D39, DDP 4 mg/kg i.p. QW×4)?
Its value is 19.3 ± 0.3 g.

What about the “body weight loss rate” value ([2]; D39, DDP 4 mg/kg i.p. QW×4) of the same compound?
Its value is “(−4.6%)”.

What about the “Mean animal body weight” value [2, 8] of the same compound?
Its value is 18.0 ± 0.3 g.

And the “body weight loss rate” value [2, 8]?
Its value is “(2.5%)”.

What about the “Mean animal body weight” value ([2]; D42, DDP 4 mg/kg i.p. QW×4) of the same compound?
The value was 19.8 ± 0.5 g.

And the “body weight loss rate” value ([2]; D42, DDP 4 mg/kg i.p. QW×4)?
The value was “(−7.7%)”.

What about the “Mean animal body weight” value [2, 9] of the same compound?
The value was 18.8 ± 0.4 g.

And the “body weight loss rate” value [2, 9]?
The value was “(−1.5%)”.

And the “Mean animal body weight” value ([2]; D46, DDP 4 mg/kg i.p. QW×4)?
Its value is 19.5 ± 0.5 g.

And the “body weight loss rate” value ([2]; D46, DDP 4 mg/kg i.p. QW×4)?
Its value is “(−5.6%)”.

What about the “Mean animal body weight” value [2, 10] of the same compound?
Its value is 17.1 ± 0.5 g.

And the “body weight loss rate” value [2, 10]?
Its value is “(7.4%)”.

Which “proportion of proliferating cells (EDU)” value (A549 cells; 48 hours, vs CTL (0 μM)) does the source give for `COC1=C(OC)C(=O)C(CCCCCCCCCCOC(=O)Cc2c(C)n(C(=O)c3ccc(Cl)cc3)c3ccc(OC)cc23)=C(C)C1=O` [compound of formula (I)] here?
The value was “significantly reduced”.

What about the “cell proliferation under FBS stimulation (EDU)” value (A549 cells; FBS increased to 20% for last 6 h) of the same compound?
The value was “can inhibit the cell proliferation effect”.
